Literature values, collected in paper PMC12675387, “Receptor interaction profiles of 4-alkoxy-2,6-dimethoxyphenethylamines (Ψ derivatives) and related amphetamines” (Frontiers in Pharmacology, 2025).
Where two headings read alike, the source gives them in different places.

Tests used:
human 5-HT2B receptor = molecular target: T1, human 5-HT2B receptor (Homo sapiens, UniProt P41595); set-up: method as in Luethi et al., 2018; conditions: reference substances; ref Luethi et al., 2018; cited from earlier work
T1 construct: expressed in transfected cells; host or cells: HEK 293 cells

human 5-HT2A receptor = molecular target: T2, human 5-HT2A receptor (Homo sapiens, UniProt P28223); conditions: cited from earlier work; for h5-HT2A activation efficacy Emax ± SD: reference substances, ref Luethi et al., 2018; for type of agonism at the 5-HT2A receptor: ref Kolaczynska et al., 2019
T2 construct: expressed in transfected cells; host or cells: NIH-3T3 mouse embryonic fibroblasts

rTAAR1 = rTAAR1 (Rattus norvegicus, UniProt Q923Y9); set-up: expressed in transfected cells; host or cells: HEK 293 cells (membrane preparations); conditions: cited from earlier work
[1] = cited from earlier work; for duration of effects in humans / psychoactive dose in humans: anecdotal; for fold increase in human potency from mescaline: ref Kolaczynska et al., 2022
h5-HT2A receptor = h5-HT2A receptor (Homo sapiens, UniProt P28223); set-up: expressed in transfected cells; host or cells: HEK 293 cells (membrane preparations); conditions: ref Kolaczynska et al., 2022; cited from earlier work
hD2 receptor = hD2 receptor (Homo sapiens, UniProt P14416); set-up: expressed in transfected cells; host or cells: HEK 293 cells (membrane preparations); method as in Luethi et al. (2019b); conditions: reference substance; ref Luethi et al. (2019b); read-out: hD2 Ki ± SD; cited from earlier work
hDAT = hDAT (Homo sapiens, UniProt Q01959); set-up: expressed in transfected cells; host or cells: HEK 293 cells (membrane preparations); method as in Luethi et al. (2019b); conditions: reference substance; ref Luethi et al. (2019b); read-out: hDAT Ki ± SD; cited from earlier work
hα2A adrenergic receptor = molecular target: T3, hα2A adrenergic receptor (Homo sapiens, UniProt P08913); set-up: expressed in transfected cells; host or cells: Chinese hamster lung cells (membrane preparations); method as in Luethi et al. (2019b); conditions: reference substance; ref Luethi et al. (2019b); read-out: hα2A Ki ± SD; cited from earlier work
T3 sequence (P08913 1-465): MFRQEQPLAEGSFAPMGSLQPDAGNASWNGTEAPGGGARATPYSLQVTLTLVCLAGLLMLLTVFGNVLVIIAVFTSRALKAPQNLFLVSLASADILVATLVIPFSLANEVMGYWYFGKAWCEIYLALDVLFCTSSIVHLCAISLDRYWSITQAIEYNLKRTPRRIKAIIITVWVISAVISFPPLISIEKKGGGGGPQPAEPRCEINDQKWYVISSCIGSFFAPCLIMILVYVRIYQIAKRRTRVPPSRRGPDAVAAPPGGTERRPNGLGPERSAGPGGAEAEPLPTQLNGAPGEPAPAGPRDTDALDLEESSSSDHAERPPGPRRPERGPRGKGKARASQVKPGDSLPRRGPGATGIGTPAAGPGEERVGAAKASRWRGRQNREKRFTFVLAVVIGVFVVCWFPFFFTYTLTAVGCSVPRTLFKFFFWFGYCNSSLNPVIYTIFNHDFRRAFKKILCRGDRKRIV

mTAAR1 = mTAAR1 (Mus musculus, UniProt Q923Y8); set-up: expressed in transfected cells; host or cells: HEK 293 cells (membrane preparations); method as in Luethi et al. (2019b); conditions: reference substance; ref Luethi et al. (2019b); read-out: mTAAR1 Ki ± SD; cited from earlier work
hNET = hNET (Homo sapiens, UniProt P23975); set-up: expressed in transfected cells; host or cells: HEK 293 cells (membrane preparations); method as in Luethi et al. (2019b); conditions: reference substance; ref Luethi et al. (2019b); read-out: hNET Ki ± SD; cited from earlier work
hα1A adrenergic receptor = molecular target: T4, hα1A adrenergic receptor (Homo sapiens, UniProt P35348); set-up: expressed in transfected cells; host or cells: Chinese hamster ovary cells (membrane preparations); method as in Luethi et al. (2019b); conditions: reference substance; ref Luethi et al. (2019b); read-out: hα1A Ki ± SD; cited from earlier work
T4 sequence (P35348 1-466): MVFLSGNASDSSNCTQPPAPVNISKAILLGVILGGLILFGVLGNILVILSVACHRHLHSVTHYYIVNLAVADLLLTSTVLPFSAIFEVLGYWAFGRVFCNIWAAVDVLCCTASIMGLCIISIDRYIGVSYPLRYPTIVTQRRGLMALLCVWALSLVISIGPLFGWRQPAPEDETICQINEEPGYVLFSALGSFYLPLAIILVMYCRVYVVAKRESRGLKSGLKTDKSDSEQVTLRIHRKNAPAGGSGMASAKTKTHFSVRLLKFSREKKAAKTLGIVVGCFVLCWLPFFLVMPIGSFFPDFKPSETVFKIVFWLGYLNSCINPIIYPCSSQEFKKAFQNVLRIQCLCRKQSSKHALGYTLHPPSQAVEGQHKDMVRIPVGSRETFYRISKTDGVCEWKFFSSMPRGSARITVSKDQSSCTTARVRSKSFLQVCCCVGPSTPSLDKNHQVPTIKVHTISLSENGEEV

hSERT = hSERT (Homo sapiens, UniProt P31645); set-up: expressed in transfected cells; host or cells: HEK 293 cells (membrane preparations); method as in Luethi et al. (2019b); conditions: reference substance; ref Luethi et al. (2019b); read-out: hSERT Ki ± SD; cited from earlier work
Sequence of hSERT (P31645 whole entry): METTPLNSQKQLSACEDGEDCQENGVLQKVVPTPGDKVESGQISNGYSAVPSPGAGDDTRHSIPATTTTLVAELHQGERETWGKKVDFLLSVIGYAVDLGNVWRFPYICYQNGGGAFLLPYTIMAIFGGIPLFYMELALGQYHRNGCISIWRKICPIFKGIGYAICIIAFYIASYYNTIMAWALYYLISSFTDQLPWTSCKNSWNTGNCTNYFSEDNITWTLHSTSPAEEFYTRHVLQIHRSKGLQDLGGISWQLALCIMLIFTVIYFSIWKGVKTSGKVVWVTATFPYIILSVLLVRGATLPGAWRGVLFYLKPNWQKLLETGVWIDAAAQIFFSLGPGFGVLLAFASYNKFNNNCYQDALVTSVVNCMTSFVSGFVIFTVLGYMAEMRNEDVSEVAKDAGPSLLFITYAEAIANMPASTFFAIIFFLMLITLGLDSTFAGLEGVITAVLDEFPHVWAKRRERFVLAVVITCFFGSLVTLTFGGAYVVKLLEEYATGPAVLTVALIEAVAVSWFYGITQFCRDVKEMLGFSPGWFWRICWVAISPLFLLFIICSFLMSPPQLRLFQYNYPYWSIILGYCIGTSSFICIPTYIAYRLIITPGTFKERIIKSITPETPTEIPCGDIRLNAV

T2 sequence (P28223 whole entry): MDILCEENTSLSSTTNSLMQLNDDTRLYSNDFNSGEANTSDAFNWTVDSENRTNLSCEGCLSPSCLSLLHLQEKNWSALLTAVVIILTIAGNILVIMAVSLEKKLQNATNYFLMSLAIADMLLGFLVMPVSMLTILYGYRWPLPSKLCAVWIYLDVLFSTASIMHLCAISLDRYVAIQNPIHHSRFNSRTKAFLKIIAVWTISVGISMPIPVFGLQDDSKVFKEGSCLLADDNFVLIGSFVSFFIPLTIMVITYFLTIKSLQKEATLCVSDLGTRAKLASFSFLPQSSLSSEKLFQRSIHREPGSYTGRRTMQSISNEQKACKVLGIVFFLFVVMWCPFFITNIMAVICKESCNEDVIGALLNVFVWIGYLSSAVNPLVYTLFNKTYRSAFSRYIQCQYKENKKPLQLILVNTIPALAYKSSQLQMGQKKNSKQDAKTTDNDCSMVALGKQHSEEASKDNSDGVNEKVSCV
Sequence of rTAAR1 (Q923Y9 whole entry): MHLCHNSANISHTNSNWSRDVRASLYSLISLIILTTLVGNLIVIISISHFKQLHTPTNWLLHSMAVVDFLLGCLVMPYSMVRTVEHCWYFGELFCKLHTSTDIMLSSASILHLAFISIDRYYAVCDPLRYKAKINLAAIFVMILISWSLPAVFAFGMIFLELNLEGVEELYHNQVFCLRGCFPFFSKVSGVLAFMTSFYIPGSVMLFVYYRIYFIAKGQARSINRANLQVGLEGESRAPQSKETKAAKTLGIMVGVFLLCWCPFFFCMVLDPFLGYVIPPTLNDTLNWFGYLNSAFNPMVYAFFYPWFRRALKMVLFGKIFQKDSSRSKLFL
Sequence of h5-HT2A receptor (P28223 whole entry): as the sequence (P28223 whole entry) above
T1 sequence (P41595 whole entry): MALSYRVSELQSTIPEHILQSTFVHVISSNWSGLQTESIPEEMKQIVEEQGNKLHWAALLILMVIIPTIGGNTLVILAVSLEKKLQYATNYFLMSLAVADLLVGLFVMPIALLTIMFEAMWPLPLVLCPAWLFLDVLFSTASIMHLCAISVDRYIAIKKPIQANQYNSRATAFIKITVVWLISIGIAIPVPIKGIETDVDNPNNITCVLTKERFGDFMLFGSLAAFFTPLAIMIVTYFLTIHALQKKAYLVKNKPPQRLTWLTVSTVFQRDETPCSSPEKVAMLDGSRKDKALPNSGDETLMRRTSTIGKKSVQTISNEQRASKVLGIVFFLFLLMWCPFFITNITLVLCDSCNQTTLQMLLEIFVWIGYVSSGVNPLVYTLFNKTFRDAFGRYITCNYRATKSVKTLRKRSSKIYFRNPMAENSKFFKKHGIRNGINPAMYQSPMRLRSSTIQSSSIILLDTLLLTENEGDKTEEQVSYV
Sequence of hDAT (Q01959 whole entry): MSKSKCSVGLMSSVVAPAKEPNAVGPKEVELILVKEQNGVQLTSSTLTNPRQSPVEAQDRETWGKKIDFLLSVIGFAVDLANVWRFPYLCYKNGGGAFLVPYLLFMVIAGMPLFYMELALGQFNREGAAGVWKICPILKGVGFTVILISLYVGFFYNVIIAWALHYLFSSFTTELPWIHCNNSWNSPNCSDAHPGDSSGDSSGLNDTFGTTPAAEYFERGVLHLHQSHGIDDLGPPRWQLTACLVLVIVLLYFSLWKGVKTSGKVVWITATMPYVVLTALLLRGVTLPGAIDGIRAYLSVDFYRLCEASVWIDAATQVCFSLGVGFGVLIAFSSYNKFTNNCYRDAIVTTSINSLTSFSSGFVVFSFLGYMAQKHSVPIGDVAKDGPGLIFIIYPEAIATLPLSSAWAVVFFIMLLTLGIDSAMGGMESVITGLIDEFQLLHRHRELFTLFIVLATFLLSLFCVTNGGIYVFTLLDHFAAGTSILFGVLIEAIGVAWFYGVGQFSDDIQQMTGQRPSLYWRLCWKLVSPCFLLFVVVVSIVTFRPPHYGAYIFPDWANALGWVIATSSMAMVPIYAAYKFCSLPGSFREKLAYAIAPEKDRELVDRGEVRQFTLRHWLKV
Sequence of mTAAR1 (Q923Y8 whole entry): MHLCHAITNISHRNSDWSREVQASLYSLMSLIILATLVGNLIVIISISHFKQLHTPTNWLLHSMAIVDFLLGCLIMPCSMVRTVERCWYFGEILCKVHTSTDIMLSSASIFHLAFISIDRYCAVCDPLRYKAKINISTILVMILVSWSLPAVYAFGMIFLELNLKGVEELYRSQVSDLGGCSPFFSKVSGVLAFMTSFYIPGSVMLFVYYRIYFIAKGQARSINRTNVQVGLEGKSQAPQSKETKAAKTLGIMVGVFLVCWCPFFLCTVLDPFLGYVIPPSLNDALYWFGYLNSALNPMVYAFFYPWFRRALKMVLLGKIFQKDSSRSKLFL
Sequence of hD2 receptor (P14416 whole entry): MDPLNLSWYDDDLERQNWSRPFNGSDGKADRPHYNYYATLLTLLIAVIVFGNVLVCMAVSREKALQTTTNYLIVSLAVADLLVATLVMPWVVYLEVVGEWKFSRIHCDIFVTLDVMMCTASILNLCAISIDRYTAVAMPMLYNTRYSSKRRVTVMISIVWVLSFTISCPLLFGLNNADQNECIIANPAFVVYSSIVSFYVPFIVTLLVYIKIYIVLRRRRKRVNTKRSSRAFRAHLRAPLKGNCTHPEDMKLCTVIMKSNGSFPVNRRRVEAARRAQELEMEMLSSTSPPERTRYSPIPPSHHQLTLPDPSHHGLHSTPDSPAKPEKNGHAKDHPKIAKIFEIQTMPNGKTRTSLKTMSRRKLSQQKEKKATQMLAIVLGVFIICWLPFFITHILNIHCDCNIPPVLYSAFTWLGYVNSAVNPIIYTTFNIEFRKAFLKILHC
Sequence of hNET (P23975 whole entry): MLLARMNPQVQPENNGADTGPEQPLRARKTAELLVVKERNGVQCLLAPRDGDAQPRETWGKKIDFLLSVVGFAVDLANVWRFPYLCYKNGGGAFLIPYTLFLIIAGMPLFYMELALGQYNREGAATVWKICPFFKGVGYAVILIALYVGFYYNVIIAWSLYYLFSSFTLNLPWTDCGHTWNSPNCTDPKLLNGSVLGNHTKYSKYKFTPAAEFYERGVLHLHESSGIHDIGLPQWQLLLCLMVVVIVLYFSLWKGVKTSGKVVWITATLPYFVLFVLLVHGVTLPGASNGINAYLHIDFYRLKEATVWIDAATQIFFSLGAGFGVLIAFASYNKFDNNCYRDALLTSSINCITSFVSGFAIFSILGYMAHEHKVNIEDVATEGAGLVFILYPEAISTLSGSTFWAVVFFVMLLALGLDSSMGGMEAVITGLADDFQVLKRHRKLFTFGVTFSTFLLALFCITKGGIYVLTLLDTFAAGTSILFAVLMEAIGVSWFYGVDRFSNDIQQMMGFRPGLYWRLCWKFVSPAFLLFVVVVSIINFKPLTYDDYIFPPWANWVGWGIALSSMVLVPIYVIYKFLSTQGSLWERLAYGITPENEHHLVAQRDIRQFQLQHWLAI

Structure (SMILES): COc1cc(CCN)c(OC)cc1Br [2C-B, 4-bromo-2,5-dimethoxyphenethylamine]
- h5-HT2B activation efficacy Emax ± SD (human 5-HT2B receptor): 52 ± 26%
- h5-HT2A activation efficacy Emax ± SD (human 5-HT2A receptor): 92 ± 8%

Structure (SMILES): CCOc1cc(OC)c(CCN)cc1OC [2C-O-2]
- Ki (rTAAR1; read-out: TAAR1 Ki (rat and mouse TAAR1 as worded; compared with the rat value of Ψ-2C-O-2), 2,4,5-trisubstituted derivative, ref Kolaczynska et al., 2019): 0.67 µM

Structure (SMILES): COc1cc(SC(C)C)c(OC)cc1CCN [2C-T-4]
- duration of effects in humans ([1]; ref Shulgin and Shulgin, 1991): 12 to 18 h
- psychoactive dose in humans ([1]; ref Shulgin and Shulgin, 1991): 8 to 20 mg

Structure (SMILES): COc1cc(CCN)cc(OC)c1OC(F)F [DFM]
- fold increase in human potency from mescaline [1]: 4 fold
- fold increase in receptor affinity (Ki values) from mescaline (h5-HT2A receptor): 3 fold

Structure (SMILES): COc1cc(CC(C)N)c(OC)cc1C (stereo not shown) [DOM]
- duration of effects in humans ([1]; ref Shulgin and Shulgin, 1991): 14 to 20 h
- psychoactive dose in humans ([1]; ref Shulgin and Shulgin, 1991): 3 to 10 mg

Structure (SMILES): CCN(CC)C(=O)[C@@H]1C=C2c3cccc4[nH]cc(c34)C[C@H]2N(C)C1 [LSD, lysergic acid diethylamide]
- h5-HT2A activation efficacy Emax ± SD (human 5-HT2A receptor): 73 ± 2%

Structure (SMILES): C=CCOc1cc(OC)c(CC(C)N)cc1OC (stereo not shown) [MALM]
- type of agonism at the 5-HT2A receptor (human 5-HT2A receptor): full agonists

Structure (SMILES): CNC(C)Cc1ccc2c(c1)OCO2 (stereo not shown) [MDMA]
- Ki (hD2 receptor): > 13 µM
- Ki (hDAT): > 8.5 µM
- Ki (hα2A adrenergic receptor): 4.6 µM
- Ki (mTAAR1): 3.1 µM
- Ki (hNET): > 8.7 µM
- Ki (rTAAR1; reference substance, ref Luethi et al. (2019b), read-out: rTAAR1 Ki ± SD): 0.25 ± 0.01 µM
- Ki (hα1A adrenergic receptor): 6.9 µM
- Ki (hSERT): > 7.5 µM

Structure (SMILES): C=C(C)COc1cc(OC)c(CC(C)N)cc1OC (stereo not shown) [MMALM]
- type of agonism at the 5-HT2A receptor (human 5-HT2A receptor): full agonists

Structure (SMILES): COc1cc(OC)c(OC)cc1CC(C)N (stereo not shown) [TMA-2]
- duration of effects in humans ([1]; ref Shulgin and Shulgin, 1991): 8 to 12 h
- psychoactive dose in humans ([1]; ref Shulgin and Shulgin, 1991): 20 to 40 mg

Structure (SMILES): COc1cc(CCN)cc(OC)c1OC(F)(F)F [trifluoromescaline]
- fold increase in human potency from mescaline [1]: > 9 fold
- fold increase in receptor affinity (Ki values) from mescaline (h5-HT2A receptor): 33 fold

Structure (SMILES): COc1cc(SC(C)C)cc(OC)c1CCN [Ψ-2C-T-4, 2,6-dimethoxy-4-isopropylthiophenethylamine]
- psychoactive dose in humans ([1]; ref Shulgin and Shulgin, 1991): > 12 mg
- activity in humans ([1]; highest dose evaluated (12 mg), anecdotal report, ref Shulgin and Shulgin, 1991): inactive

Structure (SMILES): COc1cc(C)cc(OC)c1CC(C)N (stereo not shown) [Ψ-DOM, 2,6-dimethoxy-4-methylamphetamine]
- duration of effects in humans ([1]; ref Shulgin and Shulgin, 1991): 6 to 8 h
- psychoactive dose in humans ([1]; ref Shulgin and Shulgin, 1991): 15 to 25 mg
